In patent US20100105652A1, “PURINES AS CYSTEINE PROTEASE INHIBITORS” (Glaxo Group Limited, priority 2007, published 2010):
Counter-ions that a name gives are not always drawn.

Columns and labels:
Falcipain-2 = molecular target: T1, Falcipain-2 (Plasmodium falciparum, UniProt Q8I6U4); experiment: falcipain-2 enzymatic assay (fluorogenic substrate H-D-VLR-AFC, endpoint); assay type: biochemical; settings: parasitic recombinant enzyme, pH 5.5, quenched after 60 minutes
T1 sequence (Q8I6U4 244-484): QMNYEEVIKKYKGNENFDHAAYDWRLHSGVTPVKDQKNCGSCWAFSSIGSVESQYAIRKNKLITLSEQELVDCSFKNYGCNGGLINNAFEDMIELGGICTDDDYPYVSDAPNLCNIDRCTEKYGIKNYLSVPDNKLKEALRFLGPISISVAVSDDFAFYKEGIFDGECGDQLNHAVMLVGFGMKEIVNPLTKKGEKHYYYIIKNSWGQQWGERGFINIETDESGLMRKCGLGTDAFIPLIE
Description: (§1) 1) Determination of Falcipain-2, Falcipain-3, Vivapain-2, and Cathepsin S Proteolytic Catalytic Activity
(§2) Assays for Falcipain-2, Falcipain-3, and Vivapain-2 are carried out with parasitic recombinant enzymes. Cathepsins S is carried out with human recombinant enzymes. Standard assay conditions for the determination of kinetic constants used a fluorogenic peptide substrate, typically H-D-VLR-AFC (Falcipain-2, Falcipain-3, Vivapain-2) or KQKLR-AMC (Cathepsin S) and are determined in 100 mM sodium acetate, pH 5.5, containing 10 mM DTT and 0.5 mM CHAPS (Falcipain-2, Falcipain-3, Vivapain-2), or 50 mM MES, pH 6.5, containing 0.5 mM CHAPS, 10 mM L-CYS, 5 mM EDTA (Cathepsin S). Stock substrate solutions are prepared at 20 mM in DMSO. The activity assays contained 30 uM substrate (Falcipain-2, Falcipain-3, Vivapain-2), and 30 uM substrate (Cathepsin S). All assays contained 1% DMSO. […] All assays are conducted at ambient temperature as end point assays being quenched after 60 minutes with the exception of Cathepsin S at 90 minutes, with 16.6 uM E-64 in 1% DMSO. Product formation (AFC or AMC) is determined from fluorescence (excitation at 405 nm; emission at 530 nm, AFC, or excitation at 360 nm; emission at 460 nm, AMC) monitored with a LJL Aquest (Molecular Devices) fluorescent plate reader. In the case of kinetic reads (used in mechanism of action studies), the reaction is not quenched but is read in the plate reader every 3 minutes for approximately 90 minutes. In addition, the mechanism of action studies for Falcipain-2 utilize Z-LR-AMC as the substrate. Product formation is determined from the fluorescence of AMC, measured with a LJL Acquest (Molecular Devices) fluorescent plate reader (excitation at 360 nm; emission at 460 nm).
(§3) Potential inhibitors are evaluated using the quenched read (endpoint) method. Assays are carried out in the presence of variable concentrations of test compound. Reactions are initiated by addition of enzyme and substrate to wells containing inhibitor stamped in 100% DMSO. For endpoint assays, the reaction is quenched with the addition of E64. Dose response data is fit to an IC50 curve with preset fitting tools according to equation 1:
(§4) y=a+(b−a)/(1+(10^X/10^C)^d) (1)
(§5) where y is the response at a particular inhibitor concentration x, a is the minimum response value, b is the maximum response value, c is the IC50, and d is the slope of the IC50 curve. Assuming the compound is a competitive inhibitor, the apparent KI can be calculated from IC50, as shown in equation 2: […]

Falcipain-3 = molecular target: T2, Falcipain-3 (Plasmodium falciparum, UniProt Q8IIL0); experiment: falcipain-3 enzymatic assay (fluorogenic substrate H-D-VLR-AFC, endpoint); assay type: biochemical; settings: parasitic recombinant enzyme, pH 5.5, quenched after 60 minutes
T2 sequence (Q8IIL0 243-492): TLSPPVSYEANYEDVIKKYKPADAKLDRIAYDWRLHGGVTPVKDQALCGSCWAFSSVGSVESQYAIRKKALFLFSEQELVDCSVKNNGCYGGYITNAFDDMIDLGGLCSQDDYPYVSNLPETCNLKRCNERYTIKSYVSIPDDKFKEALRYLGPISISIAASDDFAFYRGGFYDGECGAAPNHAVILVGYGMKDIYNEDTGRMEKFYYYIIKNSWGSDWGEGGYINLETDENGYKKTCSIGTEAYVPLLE
Description: as §1, §2, §3, §4, §5

[1] = test system: Plasmodium falciparum parasite; experiment: whole cell activity against the Plasmodium falciparum parasite; assay type: cell-based
Description: Equation 7 describes the apparent KI for competitive compounds and was substituted into equations 5 and 6 to generate the relevant binding constants from the fitting routine. In addition, the initial and final velocities were fit to equation 3 to further define the binding mechanism and potency. A complete discussion of this kinetic treatment has been fully described (Morrison et al., Adv. Enzymol. Relat. Areas Mol. Biol., 1988, 61, 201). 2) Determination of Whole Cell Activity Against the Plasmodium falciparum Parasite Compounds can be evaluated for whole cell activity against the Plasmodium falciparum parasite according to the procedure described in Sijwali S, and Rosenthal P. J., (2004) Proceedings of the National Academy of Sciences of the United States of America (PNAS) 101(13), 4384-4389 (see in particular “Measurement of Parasite Growth rates and Inhibitor Sensitivity” on page 4385); IC50 values can be calculated as described in Singh A. and Rosenthal P. J., (2001) Antimicrobial Agents and Chemotherapy 45(3), 949-951 (see in particular page 950, first column); synchronised parasites can be prepared as described in Divo A. A. et al., (1985) Protozool. 32, 59-64.

Row | SMILES | IC50 (Falcipain-2) [nM] | IC50 (Falcipain-3) [nM] | IC50 [1] [nM]
1 | CN(C)CCCn1cnc2c(N(NC(=O)c3cccc(N4CCN(C)CC4)c3)C3CCCC3)nc(C#N)nc21 [Example 37, N′-{2-cyano-9-[3-(dimethylamino)propyl]-9H-purin-6-yl}-N′-cyclo pentyl-3-4-methyl-1-piperazinyl)benzohydrazide trifluoroacetate] | 1 to 2.5 | 150 to 250 | 2.5 to 15
2 | CN1CCC(CN2CCN(Cc3ccc(C(=O)NN(c4nc(C#N)nc5c4ncn5C)C4CCCCC4)cc3)CC2)CC1 [Example 9, N′-(2-cyano-9-methyl-9H-purin-6-yl)-N′-cyclohexyl-4-({4-[(1-methyl-4-piperidinyl)methyl]-1-piperazinyl}methyl)-benzohydrazide trifluoroacetate] | 2.5 to 15 | 15 to 150 | 2.5 to 15
3 | CN(C)CCCn1cnc2c(N(CC3CCCC3)NC(=O)OC(C)(C)C)nc(C#N)nc21 [Example 12, 1,1-dimethylethyl 2-{2-cyano-9-[3-(dimethylamino)propyl]-9H-purin-6-yl}-2-(cyclopentylmethyl)hydrazinecarboxylate trifluoroacetate] | 1 to 2.5 | 15 to 150 | 15 to 150
4 | CN(C)CCCCNC(=O)n1cnc2c(N(NC(=O)OC(C)(C)C)C3CCCC3)nc(C#N)nc21 [Example 49, 1,1-dimethylethyl 2-[2-cyano-9-({[4-(dimethylamino)butyl]amino}carbonyl)-9H-purin-6-yl]-2-cyclopentylhydrazinecarboxylate trifluoroacetate] | 2.5 to 15 | 15 to 150 | > 1000
5 | CN1CCN(C2CCN(Cc3ccc(C(=O)NN(CC4CCCC4)c4nc(C#N)nc5c4ncn5C)cc3)CC2)CC1 [Example 1, N′-(2-cyano-9-methyl-9H-purin-6-yl)-N′-(cyclopentylmethyl)-4-({[4-(4-methyl-1-piperazinyl)-1-piperidinyl]methyl}benzohydrazide trifluoroacetate] | 2.5 to 15 | 15 to 150 | 15 to 150
6 | CN1CCN(Cc2ccc(C(=O)NN(CC3CCCC3)c3nc(C#N)nc4c3ncn4C)cc2)CC1 [Example 23, N′-(2-cyano-9-methyl-9H-purin-6-yl)-N′-(cyclopentylmethyl)-4-[(4-methyl-1-piperazinyl)methyl]benzohydrazide trifluoroacetate] | 2.5 to 15 | 15 to 150 | 400 to 1000
7 | CN1CCN(Cc2ccc(C(=O)NN(c3nc(C#N)nc4c3ncn4C)C3CCCC3)cc2)CC1 [Example 47, N′-(2-cyano-9-methyl-9H-purin-6-yl)-N′-cyclopentyl-4-[(4-methyl-1-piperazinyl)methyl]benzohydrazide trifluoroacetate] | 2.5 to 15 | 250 to 400 | 150 to 250
8 | CN(C)CCCn1cnc2c(N(NC(=O)c3cccc(-c4ccc(CN5CCN(C)CC5)cc4)n3)C3CCCCC3)nc(C#N)nc21 [Example 46, N′-{2-cyano-9-[3-(dimethylamino)propyl]-9H-purin-6-yl}-N′-cyclo hexyl-6-{4-[(4-methyl-1-piperazinyl)methyl]phenyl}-2-pyridinecarbohydrazide trifluoroacetate] | 2.5 to 15 | 15 to 150 | 15 to 150
9 | CN1CCN(C(=O)C2CCN(Cc3ccc(C(=O)NN(c4nc(C#N)nc5c4ncn5C)C4CCCCC4)cc3)CC2)CC1 [Example 10, N′-(2-cyano-9-methyl-9H-purin-6-yl)-N′-cyclohexyl-4-({4-[(4-methyl-1-piperazinyl)carbonyl]-1-piperidinyl}methyl)benzohydrazide trifluoroacetate] | 2.5 to 15 | 15 to 150 | 2.5 to 15
10 | CN(C)CCCn1cnc2c(N(NC(=O)c3ccc(CN4CCN(C)CC4)cc3)C3CCCCC3)nc(C#N)nc21 [Example 31, N′-{2-cyano-9-[3-(dimethylamino)propyl]-9H-purin-6-yl}-N′-cyclo hexyl-4-[(4-methyl-1-piperazinyl)methyl]benzohydrazide trifluoroacetate] | 2.5 to 15 | 15 to 150 | 15 to 150
11 | Cn1cnc2c(N(NC(=O)c3ccc(CN4CC(N5CCCC5)C4)cc3)C3CCCCC3)nc(C#N)nc21 [Example 11, N′-(2-cyano-9-methyl-9H-purin-6-yl)-N′-cyclohexyl-4-({[3-(1-pyrrolidinyl)-1-azetidinyl]methyl}benzohydrazide trifluoroacetate] | 2.5 to 15 | 15 to 150 | 15 to 150
12 | Cn1cnc2c(N(NC(=O)c3ccc(CN4CC(N5CCCC5)C4)cc3)C3CCCC3)nc(C#N)nc21 [Example 7, N′-(2-cyano-9-methyl-9H-purin-6-yl)-N′-cyclopentyl-4-({[3-(1-pyrrolidinyl)-1-azetidinyl]methyl}benzohydrazide trifluoroacetate] | 2.5 to 15 | 250 to 400 | 15 to 150
13 | CN(C)CCCn1cnc2c(N(NC(=O)OC(C)(C)C)C3CCCC3)nc(C#N)nc21 [Example 15, 1,1-dimethylethyl 2-{2-cyano-9-[3-(dimethylamino)propyl]-9H-purin-6-yl}-2-cyclopentylhydrazinecarboxylate trifluoroacetate] | 2.5 to 15 | 15 to 150 | 15 to 150
14 | CN1CCN(C2CCN(Cc3ccc(C(=O)NN(c4nc(C#N)nc5c4ncn5C)C4CCCCC4)cc3)CC2)CC1 [Example 8, N′N′-(2-cyano-9-methyl-9H-purin-6-yl)-N′-cyclohexyl-4-({[4-(4-methyl-1-piperazinyl)-1-piperidinyl]methyl}benzohydrazide trifluoroacetate] | 1 to 2.5 | 15 to 150 | 2.5 to 15
15 | CN1CCN(C2CCN(Cc3ccc(C(=O)NN(c4nc(C#N)nc5c4ncn5C)C4CCCC4)cc3)CC2)CC1 [Example 4, N′-(2-cyano-9-methyl-9H-purin-6-yl)-N′-cyclopentyl-4-({[4-(4-methyl-1-piperazinyl)-1-piperidinyl]methyl}benzohydrazide trifluoroacetate] | 2.5 to 15 | 150 to 250 | 2.5 to 15
16 | CN1CCN(Cc2ccc(C(=O)NN(c3nc(C#N)nc4c3ncn4C(=O)N3CCN(C)CC3)C3CCCCC3)cc2)CC1 [Example 38, N′-{2-cyano-9-[(4-methyl-1-piperazinyl)carbonyl]-9H-purin-6-yl}-N′-cyclohexyl-4-[(4-methyl-1-piperazinyl)methyl]benzohydrazide trifluoroacetate] | ≤ 1 | 2.5 to 15 | 15 to 150
17 | CN1CCN(Cc2ccc(-c3cccc(C(=O)NN(c4nc(C#N)nc5c4ncn5C)C4CCCC4)n3)cc2)CC1 [Example 28, N′-(2-cyano-9-methyl-9H-purin-6-yl)-N′-cyclopentyl-6-{4-[(4-methyl-1-piperazinyl)methyl]phenyl}-2-pyridinecarbohydrazide trifluoroacetate] | 2.5 to 15 | 15 to 150 | 15 to 150
